In patent US20060142247A1, “Tricyclic heterocycles” (priority 2004, published 2006):

Tested on: HCT 116 cells
Assay: Viability assay HCT 116 cells (CellTiter-Glo)
Type: cell-based
Conditions: Homo sapiens, HCT-116, 120 h, HCT 116 human colon carcinoma cells, 5 days incubation, CellTiter-Glo luminescence
Method: Viability Assay—HCT 116 Cells
A viability assay was performed using the CellTiter-Glo® Luminescent Cell Viability Assay (see Promega Corporation's Technical Bulletin No. 288, pp. 1-11 [revised 2/04] which is hereby incorporated by reference in its entirety). This assay is a homogeneous method of determining the number of viable cells in culture based on quantitation of the ATP present, an indicator of metabolically active cells. The assay is designed for use with multiwell formats, making it ideal for automated high-throughput screening (HTS), cell proliferation and cytotoxicity assays. The homogeneous assay procedure involves adding a single reagent (containing luciferase, luciferan substrate, and buffer) directly to cells cultured in serum-supplemented medium. Cell washing, removal of medium and multiple pipetting steps are not required. The system detects as few as 15 cells/well in a 384-well format in 10 minutes after adding reagent and mixing.
The homogeneous “add-mix-measure” format results in cell lysis and generation of a luminescent signal proportional to the amount of ATP present. The amount of ATP is directly proportional to the number of cells present in culture. The above-referenced assay generates a “glow-type” luminescent signal, produced by the luciferase reaction, which has a half-life generally greater than five hours, depending on cell type and medium used. The extended half-life eliminates the need to use reagent injectors and provides flexibility for continuous or batch mode processing of multiple plates. The unique homogeneous format avoids errors that may be introduced by other ATP measurement methods that require multiple steps.
HCT 116 cells (human colon carcinoma, ATCC-No. CCl-247) were cultivated in RPMI 1640 medium with GlutaMAX™ I (cell culture media that contains L-Alanyl-L-Glutamine [a stabilized a form/source of L-Glutamine] from Invitrogen, Cat-No. 61870-010), 2.5% Fetal Calf Serum (FCS, Sigma Cat-No. F4135 (FBS)); 100 Units/ml penicillin/100 μg/ml streptomycin (=Pen/Strep from Invitrogen Cat. No. 15140). For the assay the cells were seeded in 384 well plates, 1000 cells per well, in the same medium. The next day the test compounds were added in various concentrations ranging from 30 μM to 0.0015 μM (10 concentrations, 1:3 diluted). After 5 days the viability assay was done according to the instructions of the manufacturer. In brief: the cell-plate was equilibrated to room temperature for approximately 30 minutes and than the reagent (containing luciferase, luciferan substrate, and buffer) was added. The contents were carefully mixed for 15 minutes to induce cell lysis. After 45 minutes the luminescent signal was measured in Victor 2, (scanning multiwell spectrophotometer, Wallac).
Medium: RPMI 1640 with cell culture media containing L-Alanyl-L-Glutamine [GlutaMAX™ I (Invitrogen, Cat-Nr. 61870)], 5% FCS (Sigma Cat.-No. F4135), Pen/Strep (Invitrogen, Cat No. 15140). • HCT116 (ATCC-No. CCl-247): 1000 cells in 60 μl per well of 384 well plate (Greiner 781098, μClear-plate white) • After seeding incubate plates 24 h at 37° C., 5% CO2 2nd. Day: Induction (Treatment with Compounds, 10 Concentrations):
In order to achieve a final concentration of 30 μM as highest concentration […] of 10 mM compound stock solution were added directly to 163 μl media. Then step e) of the dilution procedure described below, was followed.

Row | IC50 | SMILES
1 | 100 to 1000 nM | CC1(C)C(=O)N(CCNS(C)(=O)=O)c2cc3[nH]c(-c4n[nH]c5ccccc45)nc3cc21 [Example 61, N-{2-[2-(1H-Indazol-3-yl)-7,7-dimethyl-6-oxo-6,7-dihydro-3H-imidazo[4,5-f]indol-5-yl]-ethyl}-methanesulfonamide]
2 | 1000 to 10000 nM | CCN1C(=O)C(C)(C)c2cc3[nH]c(-c4n[nH]c5ccc(NC(=O)N6CCOCC6)cc45)nc3cc21 [Example 128, Morpholine-4-carboxylic acid [3-(5-ethyl-7,7-dimethyl-6-oxo-1,5,6,7-tetrahydro-imidazo[4,5-f]indol-2-yl)-1H-indazol-5-yl]-amide]
3 | 100 to 1000 nM | CC(C)N1C(=O)C(C)(C)c2cc3[nH]c(-c4n[nH]c5ccc(NS(=O)(=O)c6ccccc6[N+](=O)[O-])cc45)nc3cc21 [Example 144, N-[3-(5-Isopropyl-7,7-dimethyl-6-oxo-1,5,6,7-tetrahydro-imidazo[4,5-f]indol-2-yl)-1H-indazol-5-yl]-2-nitro-benzenesulfonamide]
4 | 100 to 1000 nM | COc1cc(CNC(=O)CN2C(=O)C(C)(C)c3cc4nc(-c5n[nH]c6ccccc56)[nH]c4cc32)cc(OC)c1 [Example 47, N-(3,5-Dimethoxy-benzyl)-2-[2-(1H-indazol-3-yl)-7,7-dimethyl-6-oxo-6,7-dihydro-3H-imidazo[4,5-f]indol-5-yl]-acetamide]
5 | 100 to 1000 nM | CC1(C)C(=O)Nc2cc3[nH]c(-c4n[nH]c5ccc(C(=O)NCc6ccccc6)cc45)nc3cc21 [Example 77, 3-(7,7-Dimethyl-6-oxo-3,5,6,7-tetrahydro-imidazo[4,5-f]indol-2-yl)-1H-indazole-5-carboxylic acid benzylamide]
6 | 100 to 1000 nM | CCN1C(=O)C(C)(C)c2cc3[nH]c(-c4n[nH]c5ccc(NS(=O)(=O)c6ccc(F)cc6)cc45)nc3cc21 [Example 137, N-[3-(5-Ethyl-7,7-dimethyl-6-oxo-1,5,6,7-tetrahydro-imidazo[4,5-f]indol-2-yl)-1H-indazol-5-yl]-4-fluoro-benzenesulfonamide]
7 | 100 to 1000 nM | CCN1C(=O)C(C)(C)c2cc3nc(-c4n[nH]c5cc(C(=O)Nc6ccccc6)ccc45)[nH]c3cc21 [Example 108, 3-(5-Ethyl-7,7-dimethyl-6-oxo-3,5,6,7-tetrahydro-imidazo[4,5-f]indol-2-yl)-1H-indazole-6-carboxylic acid phenylamide]
8 | 240 nM | CC1(C)C(=O)N(Cc2nccs2)c2cc3[nH]c(-c4n[nH]c5ccccc45)nc3cc21 [Example 32, 2-(1H-Indazol-3-yl)-7,7-dimethyl-5-thiazol-2-ylmethyl-5,7-dihydro-3H-imidazo[4,5-f]indol-6-one]
9 | 100 to 1000 nM | CCN1C(=O)C(C)(C)c2cc3[nH]c(-c4n[nH]c5ccc(NC(=O)Cc6ccc(C)cc6)cc45)nc3cc21 [Example 117, N-[3-(5-Ethyl-7,7-dimethyl-6-oxo-1,5,6,7-tetrahydro-imidazo[4,5-f]indol-2-yl)-1H-indazol-5-yl]-2-p-tolyl-acetamide]
10 | 100 to 1000 nM | CC1(C)C(=O)N(CC2CC2)c2cc3[nH]c(-c4n[nH]c5ccccc45)nc3cc21 [Example 1, 5-Cyclopropylmethyl-2-(1H-indazol-3-yl)-7,7-dimethyl-5,7-dihydro-3H-imidazo[4,5-f]indol-6-one]
11 | 100 to 1000 nM | CCN(CC)CCN1C(=O)C(C)(C)c2cc3nc(-c4n[nH]c5ccccc45)[nH]c3cc21 [Example 22, 5-(2-Diethylamino-ethyl)-2-(1H-indazol-3-yl)-7,7-dimethyl-5,7-dihydro-3H-imidazo[4,5-f]indol-6-one]
12 | 100 to 1000 nM | CCN1C(=O)C(C)(C)c2cc3[nH]c(-c4n[nH]c5ccc(NC(=O)OCc6ccccc6)cc45)nc3cc21 [Example 130, [3-(5-Ethyl-7,7-dimethyl-6-oxo-1,5,6,7-tetrahydro-imidazo[4,5-f]indol-2-yl)-1H-indazol-5-yl]-carbamic acid benzyl ester]
13 | 100 to 1000 nM | CCN1C(=O)C(C)(C)c2cc3nc(-c4n[nH]c5ccc(C#N)cc45)[nH]c3cc21 [Example 72, 3-(5-Ethyl-7,7-dimethyl-6-oxo-3,5,6,7-tetrahydro-imidazo[4,5-f]indol-2-yl)-1H-indazole-5-carbonitrile]
14 | 100 to 1000 nM | CCN1C(=O)C(C)(C)c2cc3[nH]c(-c4n[nH]c5ccc(NS(=O)(=O)c6ccccc6[N+](=O)[O-])cc45)nc3cc21 [Example 134, N-[3-(5-Ethyl-7,7-dimethyl-6-oxo-1,5,6,7-tetrahydro-imidazo[4,5-f]indol-2-yl)-1H-indazol-5-yl]-2-nitro-benzenesulfonamide]
15 | 100 to 1000 nM | CCN1C(=O)C(C)(C)c2cc3nc(-c4n[nH]c5cc(Br)ccc45)[nH]c3cc21 [Example 70, 2-(6-Bromo-1H-indazol-3-yl)-5-ethyl-7,7-dimethyl-5,7-dihydro-3H-imidazo[4,5-f]indol-6-one]
16 | 100 to 1000 nM | CCN1C(=O)C(C)(C)c2cc3nc(-c4n[nH]c5ccc(C(C)=O)cc45)[nH]c3cc21 [Example 103, 2-(5-Acetyl-1H-indazol-3-yl)-5-ethyl-7,7-dimethyl-5,7-dihydro-3H-imidazo[4,5-f]indol-6-one]
17 | 100 to 1000 nM | CCN1C(=O)C(C)(C)c2cc3nc(-c4n[nH]c5ccc(C(=O)O)cc45)[nH]c3cc21 [Example 69, 3-(5-Ethyl-7,7-dimethyl-6-oxo-3,5,6,7-tetrahydro-imidazo[4,5-f]indol-2-yl)-1H-indazole-5-carboxylic acid]
18 | 100 to 1000 nM | CC1(C)C(=O)N(CCNC(=O)N2CCCC2)c2cc3[nH]c(-c4n[nH]c5ccccc45)nc3cc21 [Example 58, Pyrrolidine-1-carboxylic acid {2-[2-(1H-indazol-3-yl)-7,7-dimethyl-6-oxo-6,7-dihydro-3H-imidazo[4,5-f]indol-5-yl]-ethyl}-amide]
19 | 100 to 1000 nM | CCC(=O)Nc1ccc2[nH]nc(-c3nc4cc5c(cc4[nH]3)C(C)(C)C(=O)N5CC)c2c1 [Example 122, N-[3-(5-Ethyl-7,7-dimethyl-6-oxo-1,5,6,7-tetrahydro-imidazo[4,5-f]indol-2-yl)-1H-indazol-5-yl]-propionamide]
20 | 100 to 1000 nM | CSCCN1C(=O)C(C)(C)c2cc3nc(-c4n[nH]c5ccccc45)[nH]c3cc21 [Example 25, 2-(1H-Indazol-3-yl)-7,7-dimethyl-5-(2-methylsulfanyl-ethyl)-5,7-dihydro-3H-imidazo[4,5-f]indol-6-one]
21 | 1000 to 10000 nM | C[S+]([O-])CCN1C(=O)C(C)(C)c2cc3nc(-c4n[nH]c5ccccc45)[nH]c3cc21 (stereo not shown) [Example 64, 2-(1H-Indazol-3-yl)-5-(2-methanesulfinyl-ethyl)-7,7-dimethyl-5,7-dihydro-3H-imidazo[4,5-f]indol-6-one]
22 | 1000 to 10000 nM | CC1(C)C(=O)Nc2cc3[nH]c(-c4n[nH]c5cc(C(=O)NCc6ccccc6)ccc45)nc3cc21 [Example 104, 3-(7,7-Dimethyl-6-oxo-3,5,6,7-tetrahydro-imidazo[4,5-f]indol-2-yl)-1H-indazole-6-carboxylic acid benzylamide]
23 | 100 to 1000 nM | CCN1C(=O)C(C)(C)c2cc3[nH]c(-c4n[nH]c5ccc(NS(=O)(=O)c6ccccc6S(C)(=O)=O)cc45)nc3cc21 [Example 140, N-[3-(5-Ethyl-7,7-dimethyl-6-oxo-1,5,6,7-tetrahydro-imidazo[4,5-f]indol-2-yl)-1H-indazol-5-yl]-2-methanesulfonyl-benzenesulfonamide]
24 | 100 to 1000 nM | CN1C(=O)C(C)(C)c2cc3nc(-c4n[nH]c5ccccc45)[nH]c3cc21 [Example 4, 2-(1H-indazol-3-yl)-5,7,7-trimethyl-5,7-dihydro-3H-imidazo[4,5-f]indol-6-one]
25 | 100 to 1000 nM | CCN1C(=O)C(C)(C)c2cc3nc(-c4n[nH]c5ccc(C(=O)NCc6ccc(F)cc6F)cc45)[nH]c3cc21 [Example 85, 3-(5-Ethyl-7,7-dimethyl-6-oxo-3,5,6,7-tetrahydro-imidazo[4,5-f]indol-2-yl)-1H-indazole-5-carboxylic acid 2,4-difluoro-benzylamide]
